The values that follow come from article PMC5218480 (PLoS ONE, 2017).

The subject of the assay is MV-4-11 cells. Kind of assay: Gene expression microarray analysis (Affymetrix PrimeView) and GSEA. The format is cell-based, human. On the set-up: RFU PODN (11730768_x_at) / Fold change /veh PODN (11730768_x_at) / RFU LINC00158 (11744669_a_at) / Fold change /veh LINC00158 (11744669_a_at) / RFU DUSP10 (11751237_a_at) / Fold change /veh DUSP10 (11751237_a_at) / RFU ID3 (11757404_x_at) / Fold change /veh ID3 (11757404_x_at) / RFU PLEKHG5 (11737974_s_at) / Fold change /veh PLEKHG5 (11737974_s_at) / RFU LRRC4B (11730491_at) / Fold change /veh LRRC4B (11730491_at) / RFU GIMAP4 (11747438_a_at) / Fold change /veh GIMAP4 (11747438_a_at) / RFU KRT8 (11758183_x_at) / Fold change /veh KRT8 (11758183_x_at) / RFU CNN1 (11734310_a_at) / Fold change /veh CNN1 (11734310_a_at) / RFU VPS37D (11726825_at) / Fold change /veh VPS37D (11726825_at) / RFU C10orf10 (11716522_x_at) / Fold change /veh C10orf10 (11716522_x_at) / RFU KIR2DL2 /// KIR2DL4 /// KIR2DL5A /// KIR2DL5B /// KIR2DS1 /// KIR2DS2 /// KIR2DS3 /// KIR2DS4 /// KIR3DL3 /// KIR3DL3 /// KIR3DS1 (11738374_at) / Fold change /veh KIR2DL2 /// KIR2DL4 /// KIR2DL5A /// KIR2DL5B /// KIR2DS1 /// KIR2DS2 /// KIR2DS3 /// KIR2DS4 /// KIR3DL3 /// KIR3DL3 /// KIR3DS1 (11738374_at) / RFU C1QL1 (11718748_at) / Fold change /veh C1QL1 (11718748_at) / RFU TMPRSS4 (11747572_a_at) / Fold change /veh TMPRSS4 (11747572_a_at) / RFU HAMP (11756126_x_at) / Fold change /veh HAMP (11756126_x_at) / RFU RNFT2 (11725882_a_at) / Fold change /veh RNFT2 (11725882_a_at) / RFU NR4A2 (11747474_a_at) / Fold change /veh NR4A2 (11747474_a_at) / RFU ABCC12 (11746883_a_at) / Fold change /veh ABCC12 (11746883_a_at) / RFU TMEM136 (11760407_x_at) / Fold change /veh TMEM136 (11760407_x_at) / RFU CLDN22 /// WWC2 (11732394_at) / Fold change /veh CLDN22 /// WWC2 (11732394_at) / RFU HLA-DPB1 (11760878_x_at) / Fold change /veh HLA-DPB1 (11760878_x_at) / RFU SPINT1 (11716480_a_at) / Fold change /veh SPINT1 (11716480_a_at) / RFU GAP43 (11754022_s_at) / Fold change /veh GAP43 (11754022_s_at) / RFU A4GNT (11735810_at) / Fold change /veh A4GNT (11735810_at) / RFU PRB3 (11715151_x_at) / Fold change /veh PRB3 (11715151_x_at) / RFU TUBB4B (11761932_at) / Fold change /veh TUBB4B (11761932_at) / RFU CAPN14 (11732068_a_at) / Fold change /veh CAPN14 (11732068_a_at) / RFU TMCC2 (11721928_a_at) / Fold change /veh TMCC2 (11721928_a_at) / RFU IRGQ (11745062_a_at) / Fold change /veh IRGQ (11745062_a_at) / RFU FAM174B (11720279_a_at) / Fold change /veh FAM174B (11720279_a_at) / RFU TMPRSS4 (11748680_a_at) / Fold change /veh TMPRSS4 (11748680_a_at) / RFU FAM212B (11763350_a_at) / Fold change /veh FAM212B (11763350_a_at) / RFU PLEKHG5 (11743358_a_at) / Fold change /veh PLEKHG5 (11743358_a_at) / RFU ZSCAN30 (11745921_a_at) / Fold change /veh ZSCAN30 (11745921_a_at) / RFU CMKLR1 (11741424_a_at) / Fold change /veh CMKLR1 (11741424_a_at) / RFU LOC101060620 /// MAPK8IP1 (11723275_at) / Fold change /veh LOC101060620 /// MAPK8IP1 (11723275_at) / RFU SPTSSB (11747773_x_at) / Fold change /veh SPTSSB (11747773_x_at) / RFU PRSS12 (11739890_at) / Fold change /veh PRSS12 (11739890_at) / RFU BIN1 (11741810_x_at) / Fold change /veh BIN1 (11741810_x_at) / RFU WNT11 (11732464_a_at) / Fold change /veh WNT11 (11732464_a_at) / RFU C10orf10 (11716521_a_at) / Fold change /veh C10orf10 (11716521_a_at) / RFU C5orf56 (11738089_at) / Fold change /veh C5orf56 (11738089_at) / RFU CYB561 (11721691_x_at) / Fold change /veh CYB561 (11721691_x_at) / RFU ANKRD19P (11752326_a_at) / Fold change /veh ANKRD19P (11752326_a_at) / RFU OR2T12 /// OR2T33 /// OR2T8 (11738714_s_at) / Fold change /veh OR2T12 /// OR2T33 /// OR2T8 (11738714_s_at) / RFU VCAN (11748164_a_at) / Fold change /veh VCAN (11748164_a_at) / RFU JSRP1 (11732532_at) / Fold change /veh JSRP1 (11732532_at) / RFU KRTAP10-11 (11738290_x_at) / Fold change /veh KRTAP10-11 (11738290_x_at) / RFU MYO3A (11730013_a_at) / Fold change /veh MYO3A (11730013_a_at) / RFU EBF3 (11725865_a_at) / Fold change /veh EBF3 (11725865_a_at) / RFU CAMK2N1 (11719241_x_at) / Fold change /veh CAMK2N1 (11719241_x_at) / RFU C5orf56 (11738088_a_at) / Fold change /veh C5orf56 (11738088_a_at) / RFU OLFML3 (11715873_a_at) / Fold change /veh OLFML3 (11715873_a_at) / RFU LOC100653217 /// NTM (11731650_a_at) / Fold change /veh LOC100653217 /// NTM (11731650_a_at) / RFU MAPK11 (11762145_a_at) / Fold change /veh MAPK11 (11762145_a_at) / RFU FIZ1 (11724087_x_at) / Fold change /veh FIZ1 (11724087_x_at) / RFU OASL (11726364_x_at) / Fold change /veh OASL (11726364_x_at) / RFU SOX15 (11748057_x_at) / Fold change /veh SOX15 (11748057_x_at) / RFU CD79A (11719716_a_at) / Fold change /veh CD79A (11719716_a_at) / RFU HIST1H1D (11736915_at) / Fold change /veh HIST1H1D (11736915_at) / RFU CASKIN2 (11723855_a_at) / Fold change /veh CASKIN2 (11723855_a_at) / RFU LOC730098 (11760151_x_at) / Fold change /veh LOC730098 (11760151_x_at) / RFU OR4N2 (11742367_at) / Fold change /veh OR4N2 (11742367_at) / RFU PRRT2 (11749266_a_at) / Fold change /veh PRRT2 (11749266_a_at) / RFU SNX32 (11753110_a_at) / Fold change /veh SNX32 (11753110_a_at) / RFU CDHR5 (11726645_a_at) / Fold change /veh CDHR5 (11726645_a_at) / RFU RCAN1 (11760418_a_at) / Fold change /veh RCAN1 (11760418_a_at) / RFU FAM167A (11723789_a_at) / Fold change /veh FAM167A (11723789_a_at) / RFU FAM26E (11764081_at) / Fold change /veh FAM26E (11764081_at) / RFU ISYNA1 (11749810_s_at) / Fold change /veh ISYNA1 (11749810_s_at) / RFU ACY1 (11761880_at) / Fold change /veh ACY1 (11761880_at) / RFU 11764098_at / Fold change /veh 11764098_at / RFU SAMD14 (11745864_x_at) / Fold change /veh SAMD14 (11745864_x_at) / RFU NPB (11741838_a_at) / Fold change /veh NPB (11741838_a_at) / RFU TMPRSS6 (11731388_a_at) / Fold change /veh TMPRSS6 (11731388_a_at) / RFU KRTAP10-2 (11738614_at) / Fold change /veh KRTAP10-2 (11738614_at) / RFU ARHGAP8 /// PRR5-ARHGAP8 (11727945_x_at) / Fold change /veh ARHGAP8 /// PRR5-ARHGAP8 (11727945_x_at) / RFU KRTAP5-7 /// NADSYN1 (11734609_at) / Fold change /veh KRTAP5-7 /// NADSYN1 (11734609_at) / RFU RASL12 (11751679_a_at) / Fold change /veh RASL12 (11751679_a_at) / RFU CDKN2B (11736163_a_at) / Fold change /veh CDKN2B (11736163_a_at) / RFU PRF1 (11729649_at) / Fold change /veh PRF1 (11729649_at) / RFU, ZNF638 /// ZNF638-IT1 / Fold change vs veh, ZNF638 /// ZNF638-IT1 / RFU, PANK3 / Fold change vs veh, PANK3 / RFU, SH3YL1 / Fold change vs veh, SH3YL1 / RFU, ZEB2 / Fold change vs veh, ZEB2 / RFU, NRIP1 / Fold change vs veh, NRIP1 / RFU, PTTG1IP / Fold change vs veh, PTTG1IP / RFU, CAPN2 / Fold change vs veh, CAPN2 / RFU, MED14 / Fold change vs veh, MED14 / RFU, SNORA58 / Fold change vs veh, SNORA58 / RFU, C1orf63 / Fold change vs veh, C1orf63 / RFU, LRRFIP1 / Fold change vs veh, LRRFIP1 / RFU, NDUFAF7 / Fold change vs veh, NDUFAF7 / RFU, SLC12A2 / Fold change vs veh, SLC12A2 / RFU, IBTK / Fold change vs veh, IBTK / RFU, ESF1 / Fold change vs veh, ESF1 / Fold change vs veh, TMEM50B / RFU, TAOK1 / Fold change vs veh, TAOK1 / RFU, ACBD3 / Fold change vs veh, ACBD3 / RFU, TMA16 / Fold change vs veh, TMA16 / RFU, RWDD3 / Fold change vs veh, RWDD3 / RFU, BCAT1 / Fold change vs veh, BCAT1 / RFU, EDEM3 / Fold change vs veh, EDEM3 / RFU, TMEM33 / Fold change vs veh, TMEM33 / RFU, WDR75 / Fold change vs veh, WDR75 / RFU, AHCTF1 / Fold change vs veh, AHCTF1 / RFU, TFRC / Fold change vs veh, TFRC / RFU, ZDHHC17 / Fold change vs veh, ZDHHC17 / RFU, NOM1 / Fold change vs veh, NOM1 / RFU, ARL8B / Fold change vs veh, ARL8B / RFU, ZBTB11 / Fold change vs veh, ZBTB11 / RFU, TAMM41 / Fold change vs veh, TAMM41 / RFU, KIAA1704 /// LOC100996395 / Fold change vs veh, KIAA1704 /// LOC100996395 / RFU, ING1 / Fold change vs veh, ING1 / RFU, TRMT61B / Fold change vs veh, TRMT61B / RFU, FUBP3 / Fold change vs veh, FUBP3 / RFU, TP53 / Fold change vs veh, TP53 / RFU, TNKS2 / Fold change vs veh, TNKS2 / RFU, ZFP14 / Fold change vs veh, ZFP14 / RFU, ACTR2 / Fold change vs veh, ACTR2 / RFU, PPP3R1 / Fold change vs veh, PPP3R1 / RFU, PIK3R1 / Fold change vs veh, PIK3R1 / RFU, HNRNPA1 / Fold change vs veh, HNRNPA1 / RFU, RNF170 / Fold change vs veh, RNF170 / RFU, ZNF28 / Fold change vs veh, ZNF28 / RFU, RNGTT / Fold change vs veh, RNGTT / RFU, OGT / Fold change vs veh, OGT / RFU, BRD1 / Fold change vs veh, BRD1 / RFU, MARS / Fold change vs veh, MARS / RFU, ZNF655 / Fold change vs veh, ZNF655 / RFU, FAHD1 / Fold change vs veh, FAHD1 / RFU, BDP1 / Fold change vs veh, BDP1 / RFU, LRRCC1 / Fold change vs veh, LRRCC1 / RFU, ARID1A / Fold change vs veh, ARID1A / RFU, ZNF146 / Fold change vs veh, ZNF146 / RFU, ZNF330 / Fold change vs veh, ZNF330 / RFU, GPN3 / Fold change vs veh, GPN3 / RFU, C9orf123 / Fold change vs veh, C9orf123 / RFU, N4BP2L2 / Fold change vs veh, N4BP2L2 / RFU, ARFIP1 / Fold change vs veh, ARFIP1 / RFU, FAM179B / Fold change vs veh, FAM179B / RFU, BCL10 / Fold change vs veh, BCL10 / RFU, UHRF1BP1L / Fold change vs veh, UHRF1BP1L / RFU, BET1 / Fold change vs veh, BET1 / RFU, CNOT2 / Fold change vs veh, CNOT2 / RFU, ZNF268 / Fold change vs veh, ZNF268 / Fold change vs veh, ZNF507 / RFU, DGCR2 / Fold change vs veh, DGCR2 / RFU, WDSUB1 / Fold change vs veh, WDSUB1 / Fold change vs veh, HSP90B1 /// MIR3652 / RFU, ADSS / Fold change vs veh, ADSS / RFU, GK / Fold change vs veh, GK / RFU, ZNF148 / Fold change vs veh, ZNF148 / RFU, TAF9 / Fold change vs veh, TAF9 / RFU, SLC1A5 / Fold change vs veh, SLC1A5 / RFU, SLMO2 / Fold change vs veh, SLMO2 / RFU, ABCC4 / Fold change vs veh, ABCC4 / RFU, LOC101060439 /// RAP1B / Fold change vs veh, LOC101060439 /// RAP1B / RFU, RFX7 / Fold change vs veh, RFX7 / RFU, GTPBP10 / Fold change vs veh, GTPBP10 / RFU, CNEP1R1 / Fold change vs veh, CNEP1R1 / RFU, BIVM-ERCC5 /// ERCC5 / Fold change vs veh, BIVM-ERCC5 /// ERCC5 / RFU, ILF3 / Fold change vs veh, ILF3 / RFU 11762660_at / Fold change /veh 11762660_at / RFU VCAN (11757783_s_at) / Fold change /veh VCAN (11757783_s_at) / RFU DDX43 (11728927_at) / Fold change /veh DDX43 (11728927_at) / RFU KRT8 (11758188_x_at) / Fold change /veh KRT8 (11758188_x_at) / RFU NKD1 (11759106_at) / Fold change /veh NKD1 (11759106_at) / RFU SRD5A1 (11742802_a_at) / Fold change /veh SRD5A1 (11742802_a_at) / RFU TPSAB1 /// TPSB2 (11721975_s_at) / Fold change /veh TPSAB1 /// TPSB2 (11721975_s_at) / RFU GSTM3 (11746129_a_at) / Fold change /veh GSTM3 (11746129_a_at) / RFU IL23R (11737362_x_at) / Fold change /veh IL23R (11737362_x_at) / RFU TMEM51 (11727254_a_at) / Fold change /veh TMEM51 (11727254_a_at) / RFU PIWIL2 (11732686_x_at) / Fold change /veh PIWIL2 (11732686_x_at) / RFU ORM1 (11744905_x_at) / Fold change /veh ORM1 (11744905_x_at) / RFU CCDC152 (11743942_at) / Fold change /veh CCDC152 (11743942_at) / RFU ECM1 (11717891_a_at) / Fold change /veh ECM1 (11717891_a_at) / RFU IL23R (11748794_a_at) / Fold change /veh IL23R (11748794_a_at) / RFU TNFAIP8L3 (11732012_x_at) / Fold change /veh TNFAIP8L3 (11732012_x_at) / RFU MBOAT4 (11741988_at) / Fold change /veh MBOAT4 (11741988_at) / RFU 11764193_at / Fold change /veh 11764193_at / RFU TMEM53 (11763286_at) / Fold change /veh TMEM53 (11763286_at) / RFU MAGEB2 (11727129_at) / Fold change /veh MAGEB2 (11727129_at) / RFU TMEM200A (11744735_a_at) / Fold change /veh TMEM200A (11744735_a_at) / RFU CCDC152 (11751479_a_at) / Fold change /veh CCDC152 (11751479_a_at) / RFU FAM211A (11726209_a_at) / Fold change /veh FAM211A (11726209_a_at) / RFU RGS16 (11746705_a_at) / Fold change /veh RGS16 (11746705_a_at) / RFU VCAN (11755009_s_at) / Fold change /veh VCAN (11755009_s_at) / RFU RHOB (11743442_s_at) / Fold change /veh RHOB (11743442_s_at) / RFU RGS16 (11720943_a_at) / Fold change /veh RGS16 (11720943_a_at) / RFU RGS16 (11720944_at) / Fold change /veh RGS16 (11720944_at) / RFU, VPS4B / Fold change vs veh, VPS4B / RFU, CREB1 / Fold change vs veh, CREB1 / RFU, DNAJC13 / Fold change vs veh, DNAJC13 / RFU, GNAQ / Fold change vs veh, GNAQ / RFU, CDK5R1 / Fold change vs veh, CDK5R1 / RFU, ZRANB3 / Fold change vs veh, ZRANB3 / RFU, CUL4A / Fold change vs veh, CUL4A / RFU, CCNY / Fold change vs veh, CCNY / RFU, UFL1 / Fold change vs veh, UFL1 / RFU, COG3 / Fold change vs veh, COG3 / RFU, DIAPH2 / Fold change vs veh, DIAPH2 / RFU, SKA2 / Fold change vs veh, SKA2 / RFU, AFF3 / Fold change vs veh, AFF3 / RFU, LMF1 / Fold change vs veh, LMF1 / RFU, IPO11 / Fold change vs veh, IPO11 / RFU, DFFB / Fold change vs veh, DFFB / RFU, FOXP1 / Fold change vs veh, FOXP1 / RFU, CARD8 / Fold change vs veh, CARD8 / RFU, STRN3 / Fold change vs veh, STRN3 / RFU, ADK / Fold change vs veh, ADK / RFU, RASSF2 / Fold change vs veh, RASSF2 / RFU, WIPF1 / Fold change vs veh, WIPF1 / RFU, LARP1B / Fold change vs veh, LARP1B / RFU, RASA1 / Fold change vs veh, RASA1 / RFU, RB1 / Fold change vs veh, RB1 / RFU, PPFIA1 / Fold change vs veh, PPFIA1 / RFU, MAT2A / Fold change vs veh, MAT2A / RFU, CCT5 / Fold change vs veh, CCT5 / RFU, WDR92 / Fold change vs veh, WDR92 / RFU, CUX1 / Fold change vs veh, CUX1 / RFU, TTC7A / Fold change vs veh, TTC7A / RFU, TMEM135 / Fold change vs veh, TMEM135 / RFU, DEPTOR / Fold change vs veh, DEPTOR / RFU, CPM / Fold change vs veh, CPM / RFU, DNAJB6 / Fold change vs veh, DNAJB6 / RFU, CACNA2D3 / Fold change vs veh, CACNA2D3 / RFU, DTX4 / Fold change vs veh, DTX4 / RFU, TFCP2 / Fold change vs veh, TFCP2 / RFU, GMCL1 /// GMCL1P1 / Fold change vs veh, GMCL1 /// GMCL1P1 / RFU, AEBP2 / Fold change vs veh, AEBP2 / RFU, SNHG1 /// SNORD22 /// SNORD25 /// SNORD26 /// SNORD27 /// SNORD28 /// SNORD29 /// SNORD31 / Fold change vs veh, SNHG1 /// SNORD22 /// SNORD25 /// SNORD26 /// SNORD27 /// SNORD28 /// SNORD29 /// SNORD31 / Fold change (Aza/veh), C12orf56 (ProbeSet 11735607_a_at) / Fold change (ACY-1035/veh), C12orf56 (ProbeSet 11735607_a_at) / Fold change (Aza/veh), FGFR1OP (ProbeSet 11751329_s_at) / Fold change (ACY-1035/veh), FGFR1OP (ProbeSet 11751329_s_at) / Fold change (Aza/veh), VPS36 (ProbeSet 11739960_a_at) / Fold change (ACY-1035/veh), VPS36 (ProbeSet 11739960_a_at) / RFU SYPL1 (11715823_x_at) / Fold change /veh SYPL1 (11715823_x_at) / RFU IGFBP7 (11715501_s_at) / Fold change /veh IGFBP7 (11715501_s_at) / RFU REEP3 (11722064_at) / Fold change /veh REEP3 (11722064_at) / RFU IGLL1 (11728026_x_at) / Fold change /veh IGLL1 (11728026_x_at): dose or concentration left out as unconfirmed. The settings on record: ProbeSet 11718701_a_at; LIST B.

With `Nc1ncn([C@@H]2O[C@H](CO)[C@@H](O)[C@H]2O)c(=O)n1` [azacitidine], the “Fold change vs veh, ARFIP1” value stood at 1.05.
